Results from patent US20230174545A1, “HETEROCYCLIC COMPOUNDS AS BET INHIBITORS” (Nuvation Bio Inc., priority 2020, published 2023).

Key:
BRD4-2 = biological target: T1, BRD4-2 (Homo sapiens, UniProt O60885); test: Bromodomain and Extraterminal Domain (BET) binding assay (Alpha, Reaction Biology Corp.), BRD4-2; details: protein 130 nM, ligand histone H4 peptide (1-21) K5/8/12/16Ac-biotin 70 nM
T1 construct: purchased Reaction Biology Corp
Procedure: (§1) The bromodomain binding assays are performed by Reaction Biology Corp., Malvern, Pa., USA (www.reactionbiology.com). The BET binding assays are conducted in 384 well microplates in assay buffer (50 mM HEPES-HCl, pH 7.5, 100 mM NaCl, 1 mg/ml BSA, 0.05% CHAPS, and 0.5% DMSO) with compounds added as DMSO stocks at a single concentration or with 10-point dose response titrations. BET protein or assay buffer are delivered to the appropriate wells of the microplate. Test compound is then delivered by acoustic technology via a Labcyte Echo550 liquid handler. The microplate is centrifuged for 5 min and pre-incubated for 30 min at RT with gentle shaking. The ligand (histone H4 peptide (1-21) K5/8/12/16Ac-biotin) is delivered and the microplate is again centrifuged for 5 min and allowed to incubate for 30 min at RT with gentle shaking. Donor beads are then added in the absence of light and the microplate is centrifuged and gently shaken. After 5 min, acceptor beads are added in the absence of light and the microplate is centrifuged and gently shaken in the dark for 60 min. The microplate is read using a Perkin Elmer EnSpire Alpha plate reader (λ Ex/λ Em=680/520-620 nm). Percent inhibition is calculated relative to positive and negative controls on a per plate basis. For titration experiments, IC50 values are determined by fitting the percent inhibition versus compound concentration. […]

BRD4-1 = biological target: T2, BRD4-1 (Homo sapiens, UniProt O60885); test: Bromodomain and Extraterminal Domain (BET) binding assay (Alpha, Reaction Biology Corp.), BRD4-1; details: protein 20 nM, ligand histone H4 peptide (1-21) K5/8/12/16Ac-biotin 20 nM
T2 construct: purchased Reaction Biology Corp
Procedure: as §1

IC50 (BRD4-2) [nM]	IC50 (BRD4-1) [nM]	SMILES
0.7	2370	CCNC(=O)c1cc2c(=O)n(C)cc(-c3cc(C(C)(C)O)ccc3Oc3c(C)cc(F)cc3C)c2o1 [Compound 1, N-ethyl-7-(2-(4-fluoro-2,6-dimethylphenoxy)-5-(2-hydroxypropan-2-yl)phenyl)-5-methyl-4-oxo-4,5-dihydrofuro[3,2-c]pyridine-2-carboxamide]
3	4	CCNC(=O)c1cc2c(=O)n(C)cc(-c3cc(NS(=O)(=O)CC)ccc3Oc3ccc(F)cc3F)c2o1 [Compound 65, 7-(2-(2,4-difluorophenoxy)-5-(ethylsulfonamido)phenyl)-N-ethyl-5-methyl-4-oxo-4,5-dihydrofuro[3,2-c]pyridine-2-carboxamide]
